Assay results as given in BindingDB's records for patent WO2022101377 (Boehringer Ingelheim International, 2022).

biological target: Platelet-activating factor receptor (Homo sapiens, UniProt P25105); experiment: EVALUATION OF THE INHIBITION OF PAFR ACTIVATION
Experimental: USING AN ENDPOINT ASSAY HEK293 cells overexpressing human PAFR (produced in-house) are seeded into a Poly-D-Lysine coated 384 well white cell culture microtiter assay plate with lid (15.000 cells per well). Subsequently, the plates are incubated over night at 37 °C/5% CO2. On the next day, cells are being washed and subsequently, various concentrations of the test compounds (compounds in 100% DMSO; final concentratrion of DMSO in wells is 1%) are added to the assay plate via Echo 555 acoustic liquid handler. Plates are then incubated with lid for 90 minutes at 37 °C/5% CO2. Thereafter, PAF ligand (Cayman Chemical Company, Item no.: 60900) is added at a final concentration of 11 nM. Plates are then incubated with lid for 60 minutes at 37 °C/5% CO2. Then, 5 µl per well of Anti-IP1-Antibody-Cryptate solution and 5 µL per well of IP1-d2 solution are added to all wells of the plate and the plate is incubated for another 60 minutes light protected at room temperature. The emissions at 620 nm and 665 nm (Excitation wavelength: 320 nm) are measured using an Envision Reader (PerkinElmer).

Chain of Platelet-activating factor receptor (P25105 whole entry): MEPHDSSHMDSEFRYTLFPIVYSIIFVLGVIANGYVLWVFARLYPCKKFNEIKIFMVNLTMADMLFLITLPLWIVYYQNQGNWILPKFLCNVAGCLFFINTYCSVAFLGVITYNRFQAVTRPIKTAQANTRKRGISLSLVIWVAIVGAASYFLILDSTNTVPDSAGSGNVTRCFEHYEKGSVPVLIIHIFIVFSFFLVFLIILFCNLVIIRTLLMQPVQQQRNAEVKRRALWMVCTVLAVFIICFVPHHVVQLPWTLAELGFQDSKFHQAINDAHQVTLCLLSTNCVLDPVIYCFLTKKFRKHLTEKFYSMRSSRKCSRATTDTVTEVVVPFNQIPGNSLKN

| IC50 | SMILES |
| --- | --- |
| > 322 nM | COc1ccccc1C1NCc2nnc(C)n2-c2sc3c(c21)CC(C(=O)N1CCOCC1)C3 (stereo unspecified) [WO2022101377, Example 54] |
| > 322 nM | Cc1nnc2n1-c1sc3c(c1C(c1cc(F)cc(F)c1)NC2)CC(C(=O)N1CCOCC1)C3 (stereo unspecified) [WO2022101377, Example 58] |
| > 322 nM | Cc1nnc2n1-c1sc3c(c1C(c1ccccc1C1CC1)NC2)CC(C(=O)N1CCOCC1)C3 (stereo unspecified) [WO2022101377, Example 59] |
| > 322 nM | Cc1nnc2n1-c1sc3c(c1C(c1ccccc1CO)NC2)CC(C(=O)N1CCOCC1)C3 (stereo unspecified) [WO2022101377, Example 60] |
| > 322 nM | Cc1nnc2n1-c1sc3c(c1C(c1ccccc1O)NC2)CC(C(=O)N1CCOCC1)C3 (stereo unspecified) [WO2022101377, Example 61] |
| > 568 nM | Cc1ccccc1[C@H]1NCc2nnc(C)n2-c2sc3c(c21)C[C@H](C(=O)N1CCOCC1)C3 [WO2022101377, Example 63] |
| > 322 nM | Cc1nnc2n1-c1sc3c(c1C(c1ccccc1C(F)(F)F)NC2)CC(C(=O)N1CCOCC1)C3 (stereo unspecified) [WO2022101377, Example 56] |
| 2.7 nM | Cc1nnc2n1-c1sc3c(c1C(c1ccccc1Cl)NC2)C[C@H](C(=O)N1CCCC2(CC2)C1)C3 (stereo partly specified) [WO2022101377, Example 66] |
| 110 nM | CCCc1nnc2n1-c1sc3c(c1C(c1ccccc1Cl)NC2)CC(C(=O)N1CCOCC1)C3 (stereo unspecified) [WO2022101377, Example 80] |
| 235 nM | CSc1ccccc1C1NCc2nnc(C)n2-c2sc3c(c21)CC(C(=O)N1CCOCC1)C3 (stereo unspecified) [WO2022101377, Example 79] |

| SMILES | IC50 |
| --- | --- |
| Cc1nnc2n1-c1sc3c(c1C(c1ccccc1)NC2)CC(C(=O)N1CCOCC1)C3 (stereo unspecified) [WO2022101377, Example 74] | 102 nM |
